From publication PMC8102410, “Coordinate regulation of systemic and kidney tryptophan metabolism by the drug transporters OAT1 and OAT3” (The Journal of Biological Chemistry, 2021)

Assays:
Assay type in all cases: cell-based
OAT3 [1] = target: T1, OAT3 (Homo sapiens, UniProt Q8TCC7); experiment: inhibition of 6-carboxyfluorescein uptake in HEK-293 cells stably overexpressing human OAT3
T1 construct: gene SLC22A8
T1 sequence (Q8TCC7 1-542): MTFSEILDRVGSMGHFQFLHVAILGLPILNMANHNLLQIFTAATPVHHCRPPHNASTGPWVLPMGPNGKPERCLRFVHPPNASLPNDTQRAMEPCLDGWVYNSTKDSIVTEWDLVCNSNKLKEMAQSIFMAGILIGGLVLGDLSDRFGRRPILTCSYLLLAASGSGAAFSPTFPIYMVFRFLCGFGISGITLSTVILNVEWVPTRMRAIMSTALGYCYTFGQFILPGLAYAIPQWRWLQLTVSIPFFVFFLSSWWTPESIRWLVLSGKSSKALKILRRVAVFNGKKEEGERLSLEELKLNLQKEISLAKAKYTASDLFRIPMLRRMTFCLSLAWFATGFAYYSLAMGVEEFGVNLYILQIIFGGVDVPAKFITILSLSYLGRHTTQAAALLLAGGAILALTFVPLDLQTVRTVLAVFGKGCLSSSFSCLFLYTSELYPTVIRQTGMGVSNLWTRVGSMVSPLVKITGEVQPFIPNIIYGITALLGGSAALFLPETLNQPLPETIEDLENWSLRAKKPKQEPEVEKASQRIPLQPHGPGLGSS

OAT1 = target: T2, OAT1 (Homo sapiens, UniProt Q4U2R8); experiment: inhibition of 6-carboxyfluorescein uptake in HEK-293 cells stably overexpressing human OAT1
T2 construct: gene SLC22A6
T2 sequence (Q4U2R8 1-563): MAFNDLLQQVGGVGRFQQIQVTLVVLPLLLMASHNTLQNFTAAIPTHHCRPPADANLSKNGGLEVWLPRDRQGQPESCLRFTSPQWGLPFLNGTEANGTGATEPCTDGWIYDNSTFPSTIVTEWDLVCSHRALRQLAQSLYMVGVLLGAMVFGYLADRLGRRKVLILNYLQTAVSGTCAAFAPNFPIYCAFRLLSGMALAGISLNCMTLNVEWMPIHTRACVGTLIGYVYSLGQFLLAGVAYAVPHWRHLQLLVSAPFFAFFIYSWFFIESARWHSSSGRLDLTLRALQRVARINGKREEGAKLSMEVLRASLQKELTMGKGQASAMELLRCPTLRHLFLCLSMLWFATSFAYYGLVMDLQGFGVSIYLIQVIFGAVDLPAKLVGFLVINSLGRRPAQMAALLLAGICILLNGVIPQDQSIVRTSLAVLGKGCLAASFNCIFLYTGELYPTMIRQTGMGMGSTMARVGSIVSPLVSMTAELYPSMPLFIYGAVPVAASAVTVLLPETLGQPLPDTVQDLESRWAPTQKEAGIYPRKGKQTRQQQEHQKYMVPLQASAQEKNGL

OAT3 [2] = target: T1, OAT3; experiment: inhibition of 6-carboxyfluorescein uptake in HEK-293 cells stably overexpressing human OAT3 (data not shown)

Molecule `O=C(O)[C@@H](O)Cc1c[nH]c2ccccc12` [ILA, indolelactic acid] has an IC50 (OAT3 [1]) of 74.5 ± 23.3 µM and an IC50 (OAT1) of 229 ± 74.6 µM.

Molecule `NCCc1c[nH]c2ccc(O)cc12` [serotonin] has an IC50 (OAT3 [2]) of 288 ± 167 µM.
